# Source: ChEMBL document CHEMBL1139602, “Biological evaluation of Tyr6 and Ser7 modified drosocin analogues” (2005)
# Square brackets hold non-standard residues; d marks the D form. Peptide text beside a SMILES is read from it. Ava = NCCCCC(=O)O; GABA = NCCCC(=O)O; βAla = NCCC(=O)O
# Experiments:
# Cell line = assay: Percent of intact peptide after 8 hr of digestion in 25% human serum; format: functional
# Escherichia coli = assay: Minimum inhibitory concentration against Escherichia coli ATCC 11775 strain; format: functional
Molecule,MIC (Escherichia coli) [µM],Intact (Cell line) [%]
CC[C@H](C)[C@H](NC(=O)[C@@H]1CCCN1C(=O)[C@H](CCCN=C(N)N)NC(=O)[C@@H]1CCCN1C(=O)[C@H](Cc1c[nH]cn1)NC(=O)[C@H](CO)NC(=O)[C@@H](NC(=O)[C@@H]1CCCN1C(=O)[C@H](CCCN=C(N)N)NC(=O)[C@@H]1CCCN1C(=O)[C@H](CO)NC(=O)[C@@H](Cc1ccc(O)cc1)NC(=O)[C@@H]1CCCN1C(=O)[C@H](CCCN=C(N)N)NC(=O)[C@@H]1CCCN1C(=O)[C@H](CCCCN)NC(=O)CN)[C@@H](C)O)C(=O)N[C@@H](CCCN=C(N)N)C(=O)N[C@H](C=O)C(C)C,6.3,16
CC[C@H](C)[C@H](NC(=O)[C@@H]1CCCN1C(=O)[C@H](CCCN=C(N)N)NC(=O)[C@@H]1CCCN1C(=O)[C@H](Cc1c[nH]cn1)NC(=O)[C@H](CO)NC(=O)[C@@H](NC(=O)[C@@H]1CCCN1C(=O)[C@H](CCCN=C(N)N)NC(=O)[C@@H]1CCCN1C(=O)[C@@H](CO)NC(=O)[C@@H](Cc1ccc(O)cc1)NC(=O)[C@@H]1CCCN1C(=O)[C@H](CCCN=C(N)N)NC(=O)[C@@H]1CCCN1C(=O)[C@H](CCCCN)NC(=O)CN)[C@@H](C)O)C(=O)N[C@@H](CCCN=C(N)N)C(=O)N[C@H](C=O)C(C)C,25,17
CC[C@H](C)[C@H](NC(=O)CNC(=O)[C@H](Cc1ccc(O)cc1)NC(=O)[C@H](CC(=O)O)NC(=O)[C@@H](NC(=O)[C@H](CO)NC(=O)CNC(=O)[C@H](CC(=O)O)NC(=O)[C@@H](NC(=O)[C@@H](N)CC(N)=O)[C@@H](C)O)[C@@H](C)O)C(=O)N[C@@H](CC(C)C)C(=O)N[C@@H](CCC(N)=O)C(=O)N[C@H](C(=O)N[C@@H](CC(N)=O)C(=O)N[C@@H](CO)C(=O)N[C@H](C=O)CCCN=C(N)N)[C@@H](C)CC,> 100,
CC[C@H](C)[C@H](NC(=O)[C@@H]1CCCN1C(=O)[C@H](CCCN=C(N)N)NC(=O)[C@@H]1CCCN1C(=O)[C@H](Cc1c[nH]cn1)NC(=O)[C@H](CO)NC(=O)[C@@H](NC(=O)[C@@H]1CCCN1C(=O)[C@H](CCCN=C(N)N)NC(=O)[C@@H]1CCCN1C(=O)[C@H](COC)NC(=O)[C@H](Cc1ccc(O)cc1)NC(=O)[C@@H]1CCCN1C(=O)[C@H](CCCN=C(N)N)NC(=O)[C@@H]1CCCN1C(=O)[C@H](CCCCN)NC(=O)CN)[C@@H](C)O)C(=O)N[C@@H](CCCN=C(N)N)C(=O)N[C@H](C=O)C(C)C (H-GKPRPYS(Me)PRPTSHPRPIRV-aldehyde),25,11
CC[C@H](C)[C@H](NC(=O)[C@@H]1CCCN1C(=O)[C@H](CCCN=C(N)N)NC(=O)[C@@H]1CCCN1C(=O)[C@H](Cc1c[nH]cn1)NC(=O)[C@H](CO)NC(=O)[C@@H](NC(=O)[C@@H]1CCCN1C(=O)[C@H](CCCN=C(N)N)NC(=O)[C@@H]1CCCN1C(=O)[C@@H](NC(=O)[C@H](Cc1ccc(O)cc1)NC(=O)[C@@H]1CCCN1C(=O)[C@H](CCCN=C(N)N)NC(=O)[C@@H]1CCCN1C(=O)[C@H](CCCCN)NC(=O)CN)C(C)C)[C@@H](C)O)C(=O)N[C@@H](CCCN=C(N)N)C(=O)N[C@H](C=O)C(C)C (H-GKPRPYVPRPTSHPRPIRV-aldehyde),12.5,
CC[C@H](C)[C@H](NC(=O)[C@@H]1CCCN1C(=O)[C@H](CCCN=C(N)N)NC(=O)[C@@H]1CCCN1C(=O)[C@H](Cc1c[nH]cn1)NC(=O)[C@H](CO)NC(=O)[C@@H](NC(=O)[C@@H]1CCCN1C(=O)[C@H](CCCN=C(N)N)NC(=O)[C@@H]1CCCN1C(=O)[C@@H](NC(=O)[C@H](Cc1ccc(O)cc1)NC(=O)[C@@H]1CCCN1C(=O)[C@H](CCCN=C(N)N)NC(=O)[C@@H]1CCCN1C(=O)[C@H](CCCCN)NC(=O)CCCCN)[C@@H](C)O)[C@@H](C)O)C(=O)N[C@@H](CCCN=C(N)N)C(=O)N[C@H](C(=O)O)C(C)C (H-[Ava]KPRPYTPRPTSHPRPIRV-OH),6.3,84
CC[C@H](C)[C@H](NC(=O)[C@@H]1CCCN1C(=O)[C@H](CCCN=C(N)N)NC(=O)[C@@H]1CCCN1C(=O)[C@H](Cc1c[nH]cn1)NC(=O)[C@H](CO)NC(=O)[C@@H](NC(=O)[C@@H]1CCCN1C(=O)[C@H](CCCN=C(N)N)NC(=O)[C@@H]1CCCN1C(=O)[C@@H](NC(=O)[C@H](Cc1ccc(O)cc1)NC(=O)[C@@H]1CCCN1C(=O)[C@H](CCCN=C(N)N)NC(=O)[C@@H]1CCCN1C(=O)[C@H](CCCCN)NC(=O)CCCN)C(C)C)[C@@H](C)O)C(=O)N[C@@H](CCCN=C(N)N)C(=O)N[C@H](C=O)C(C)C (H-[GABA]KPRPYVPRPTSHPRPIRV-aldehyde),6.3,76
H-GKPRPYSPRPTSHPRPIRV-OH [DROSOCIN],6.3,3

# The next molecules have a lower MIC (Escherichia coli) than those just listed; values first:
MIC (Escherichia coli) [µM],Molecule,Intact (Cell line) [%]
3.1,CC[C@H](C)[C@H](NC(=O)[C@@H]1CCCN1C(=O)[C@H](CCCN=C(N)N)NC(=O)[C@@H]1CCCN1C(=O)[C@H](Cc1c[nH]cn1)NC(=O)[C@H](CO)NC(=O)[C@@H](NC(=O)[C@@H]1CCCN1C(=O)[C@H](CCCN=C(N)N)NC(=O)[C@@H]1CCCN1C(=O)[C@H](CO)NC(=O)C[C@@H](Cc1ccc(O)cc1)NC(=O)[C@@H]1CCCN1C(=O)[C@H](CCCN=C(N)N)NC(=O)[C@@H]1CCCN1C(=O)[C@H](CCCCN)NC(=O)CN)[C@@H](C)O)C(=O)N[C@@H](CCCN=C(N)N)C(=O)N[C@H](C=O)C(C)C,2
3.1,CC[C@H](C)[C@H](NC(=O)[C@@H]1CCCN1C(=O)[C@H](CCCN=C(N)N)NC(=O)[C@@H]1CCCN1C(=O)[C@H](Cc1c[nH]cn1)NC(=O)[C@H](CO)NC(=O)[C@@H](NC(=O)[C@@H]1CCCN1C(=O)[C@H](CCCN=C(N)N)NC(=O)[C@@H]1CCCN1C(=O)[C@@H](CO)NC(=O)[C@H](Cc1ccc(O)cc1)NC(=O)[C@@H]1CCCN1C(=O)[C@H](CCCN=C(N)N)NC(=O)[C@@H]1CCCN1C(=O)[C@H](CCCCN)NC(=O)CN)[C@@H](C)O)C(=O)N[C@@H](CCCN=C(N)N)C(=O)N[C@H](C=O)C(C)C,1
3.1,CC[C@H](C)[C@H](NC(=O)[C@@H]1CCCN1C(=O)[C@H](CCCN=C(N)N)NC(=O)[C@@H]1CCCN1C(=O)[C@H](Cc1c[nH]cn1)NC(=O)[C@H](CO)NC(=O)[C@@H](NC(=O)[C@@H]1CCCN1C(=O)[C@H](CCCN=C(N)N)NC(=O)[C@@H]1CCCN1C(=O)C[C@@H](CO)NC(=O)[C@H](Cc1ccc(O)cc1)NC(=O)[C@@H]1CCCN1C(=O)[C@H](CCCN=C(N)N)NC(=O)[C@@H]1CCCN1C(=O)[C@H](CCCCN)NC(=O)CN)[C@@H](C)O)C(=O)N[C@@H](CCCN=C(N)N)C(=O)N[C@H](C=O)C(C)C,31
3.1,CC[C@H](C)[C@H](NC(=O)[C@@H]1CCCN1C(=O)[C@H](CCCN=C(N)N)NC(=O)[C@@H]1CCCN1C(=O)[C@H](Cc1c[nH]cn1)NC(=O)[C@H](CO)NC(=O)[C@@H](NC(=O)[C@@H]1CCCN1C(=O)[C@H](CCCN=C(N)N)NC(=O)[C@@H]1CCCN1C(=O)[C@H](CO)NC(=O)[C@H](Cc1ccccc1)NC(=O)[C@@H]1CCCN1C(=O)[C@H](CCCN=C(N)N)NC(=O)[C@@H]1CCCN1C(=O)[C@H](CCCCN)NC(=O)CN)[C@@H](C)O)C(=O)N[C@@H](CCCN=C(N)N)C(=O)N[C@H](C=O)C(C)C (H-GKPRPFSPRPTSHPRPIRV-aldehyde),19
3.1,CC[C@H](C)[C@H](NC(=O)[C@@H]1CCCN1C(=O)[C@H](CCCN=C(N)N)NC(=O)[C@@H]1CCCN1C(=O)[C@H](Cc1c[nH]cn1)NC(=O)[C@H](CO)NC(=O)[C@@H](NC(=O)[C@@H]1CCCN1C(=O)[C@H](CCCN=C(N)N)NC(=O)[C@@H]1CCCN1C(=O)[C@@H](NC(=O)[C@H](Cc1ccccc1)NC(=O)[C@@H]1CCCN1C(=O)[C@H](CCCN=C(N)N)NC(=O)[C@@H]1CCCN1C(=O)[C@H](CCCCN)NC(=O)CN)[C@@H](C)O)[C@@H](C)O)C(=O)N[C@@H](CCCN=C(N)N)C(=O)N[C@H](C=O)C(C)C (H-GKPRPFTPRPTSHPRPIRV-aldehyde),26
1.6,CC[C@H](C)[C@H](NC(=O)[C@@H]1CCCN1C(=O)[C@H](CCCN=C(N)N)NC(=O)[C@@H]1CCCN1C(=O)[C@H](Cc1c[nH]cn1)NC(=O)[C@H](CO)NC(=O)[C@@H](NC(=O)[C@@H]1CCCN1C(=O)[C@H](CCCN=C(N)N)NC(=O)[C@@H]1CCCN1C(=O)[C@@H](NC(=O)[C@H](Cc1ccc(O)cc1)NC(=O)[C@@H]1CCCN1C(=O)[C@H](CCCN=C(N)N)NC(=O)[C@@H]1CCCN1C(=O)[C@H](CCCCN)NC(=O)CN)[C@@H](C)O)[C@@H](C)O)C(=O)N[C@@H](CCCN=C(N)N)C(=O)N[C@H](C=O)C(C)C (H-GKPRPYTPRPTSHPRPIRV-aldehyde),15
3.1,CC[C@H](C)[C@H](NC(=O)[C@@H]1CCCN1C(=O)[C@H](CCCN=C(N)N)NC(=O)[C@@H]1CCCN1C(=O)[C@H](Cc1c[nH]cn1)NC(=O)[C@H](CO)NC(=O)[C@@H](NC(=O)[C@@H]1CCCN1C(=O)[C@H](CCCN=C(N)N)NC(=O)[C@@H]1CCCN1C(=O)[C@@H](NC(=O)[C@H](Cc1ccc(O)cc1)NC(=O)[C@@H]1CCCN1C(=O)[C@H](CCCN=C(N)N)NC(=O)[C@@H]1CCCN1C(=O)[C@H](CCCCN)NC(=O)CCN)[C@@H](C)O)[C@@H](C)O)C(=O)N[C@@H](CCCN=C(N)N)C(=O)N[C@H](C(=O)O)C(C)C (H-[βAla]KPRPYTPRPTSHPRPIRV-OH),87
